Holding throughout (assay): area under the viability dose-response curve (AUC) (AUC (arbitrary units, max 500 = no viability loss)); higher = less sensitive (higher viability)
Conditions in all cases: exposure time: 120 h; concentration range: 0.1 nM - 10 µM, 6 doses

The subject of one assay is 13E (embryonal-type hepatoblastoma organoid). As for the experimental part:
(§1)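 Patient-derived hepatoblastoma tumor organoids (about 50 organoids per well, 384-well plates, medium with 5% BME) were treated with the PMC pediatric cancer drug library. Each drug was tested in duplicate at 6 concentrations (0.1 nM to 10 µM, 10-fold steps).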

For a further assay, the system named is 3E (embryonal-type hepatoblastoma organoid). As for the experimental part: as §1
A further assay concerns 96F1 (fetal-I hepatoblastoma organoid with intermediate liver markers). As for the experimental part:
as §1

For the next assay, the system named is 13F2 (fetal-II hepatoblastoma organoid with high liver markers). How it is done: as §1
For another assay, the system named is 27F1 (fetal-I hepatoblastoma organoid with intermediate liver markers). How it is done:
as §1

The test system of another assay is 22E (embryonal-type hepatoblastoma organoid). How it is done: as §1
In another assay the test system is 135F2 (fetal-II hepatoblastoma organoid with high liver markers). How it is done: as §1
The next assay relates to 8F1 (fetal-I hepatoblastoma organoid with intermediate liver markers). As for the experimental part: as §1
The test system of the next assay is 17F1 (fetal-I hepatoblastoma organoid with intermediate liver markers). As for the experimental part:
as §1

The test system of the next assay is 10F2 (fetal-II hepatoblastoma organoid with high liver markers). As for the experimental part: as §1
Another assay relates to 17E (embryonal-type hepatoblastoma organoid). As for the experimental part:
as §1

Molecules are shown by their SMILES. Bounds are passed on as bounds.

For `Nc1nc(=S)c2[nH]cnc2[nH]1` [6-Thioguanine], the “area under the viability dose-response curve” value (from here on “area”) with 13E was 437; in the assay with 3E, 484; in the assay on 96F1, 412; with 13F2, 381; in the assay with 27F1, 443; in the assay with 22E it was 448. Moreover, the “area” value in the assay on 135F2 amounted to 390; with 8F1, 476; in the assay on 17F1, 457; in the assay with 10F2, 462; in the assay with 17E, 432.
For `COCCOc1cnc2ccn([C@H](C)c3nnc4c(F)cc(-c5cnn(C)c5)cn34)c(=O)c2c1` [AMG 337], the “area” value with 13E was 488; with 96F1, above 500; with 13F2, 483; in the assay with 22E, above 500; with 135F2 it was 488; with 17F1, 495. Also, the “area” value came to 446 in the assay with 10F2 and 494 with 17E.
With `CO[C@H]1/C=C/C[C@H](C)[C@@H](C)S(=O)(=O)NC(=O)c2ccc3c(c2)N(C[C@@H]2CC[C@H]21)C[C@@]1(CCCc2cc(Cl)ccc21)CO3` [AMG-176], the “area” value in the assay with 13E stood at 421; in the assay with 3E it was 369; with 96F1, 488; with 13F2, 344; with 27F1, 450; in the assay with 22E, 454. Moreover, the “area” value came out at 431 in the assay on 135F2; 475 in the assay on 8F1; 481 with 17F1; 274 in the assay on 10F2; 434 with 17E.
On to `O=C(NC1CCNCC1)c1n[nH]cc1NC(=O)c1c(Cl)cccc1Cl` [AT7519], for which the “area” value in the assay with 13E worked out at 348; with 3E, 332; in the assay on 96F1, 387; in the assay with 13F2, 361; in the assay with 27F1, 456; in the assay with 22E, 371. Besides, the “area” value with 135F2 worked out at 396; with 8F1, 381; with 17F1, 381; in the assay on 10F2, 378; with 17E, 406.
Consider `COc1cc(CCc2cc(NC(=O)c3ccc(N4CC(C)NC(C)C4)cc3)n[nH]2)cc(OC)c1` (centres undefined) [AZD4547], for which the “area” value with 13E was 375; in the assay with 3E it was 308; with 96F1, 475; in the assay with 13F2, 376; with 27F1, above 500; with 22E, 370. For the same molecule, the “area” value with 135F2 was 471; in the assay with 8F1, above 500; with 17F1, 480; in the assay on 10F2, 476; with 17E it was 338.
As to `CN[C@@H](C)C(=O)N[C@H](C(=O)N1CCC[C@H]1C(=O)N[C@H]1c2ccccc2C[C@H]1OCC#CC#CCO[C@@H]1Cc2ccccc2[C@@H]1NC(=O)[C@@H]1CCCN1C(=O)[C@@H](NC(=O)[C@H](C)NC)C1CCCCC1)C1CCCCC1` [AZD5582], the “area” value with 13E was 424; in the assay on 3E it was 148; in the assay on 96F1 it was 458; in the assay with 13F2, 470; with 27F1, 394; with 22E, 82.8. Besides, the “area” value in the assay with 135F2 came out at 483; with 8F1, 414; in the assay on 17F1, 446; with 10F2 it was 321; with 17E it was 473.
Take `Cc1c2c(nn1C)CSCc1cc(n(C)n1)CSc1cc(c3ccccc3c1)OCCCc1c(C(=O)O)n(C)c3c-2c(Cl)ccc13` [AZD5991]: the “area” value in the assay on 13E was 403; in the assay on 3E, 310; with 96F1 it was above 500; in the assay with 13F2, 277; in the assay on 27F1 it was 473; in the assay on 22E it was 400. The “area” value with 135F2 stood at 379; with 8F1, 484; in the assay on 17F1 it was 482; in the assay with 10F2, 190; with 17E it was 370.
For `Cc1c2oc3c(C)ccc(C(=O)N[C@@H]4C(=O)N[C@H](C(C)C)C(=O)N5CCC[C@H]5C(=O)N(C)CC(=O)N(C)[C@@H](C(C)C)C(=O)O[C@@H]4C)c3nc-2c(C(=O)N[C@@H]2C(=O)N[C@H](C(C)C)C(=O)N3CCC[C@H]3C(=O)N(C)CC(=O)N(C)[C@@H](C(C)C)C(=O)O[C@@H]2C)c(N)c1=O` [Actinomycin D], the “area” value came out at 205 with 13E; 134 in the assay on 3E; 169 with 96F1; 114 in the assay with 13F2; 215 in the assay on 22E; 127 with 135F2. Further, the “area” value is 222 in the assay on 8F1, 187 with 17F1, 160 with 10F2 and 150 with 17E.
Take `CS(=O)(=O)OCCCCOS(C)(=O)=O` [Busulfan]: the “area” value was 489 with 13E; 485 in the assay with 96F1; above 500 with 13F2; 490 in the assay with 22E; above 500 in the assay on 135F2; above 500 in the assay on 17F1. For the same molecule, the “area” value in the assay on 10F2 and in the assay on 17E was above 500 throughout.
In the case of `CN(C)C(=N)NC(=N)N` [Metformin], the “area” value is above 500 in the assay on 13E; above 500 in the assay with 96F1; above 500 in the assay on 13F2; above 500 with 22E; above 500 with 135F2; 482 in the assay with 17F1. The “area” value is 469 in the assay on 10F2 and above 500 in the assay with 17E.
`O=C1c2c(O)ccc(O)c2C(=O)c2c(NCCNCCO)ccc(NCCNCCO)c21` [Mitoxantrone]: the “area” value with 13E was found to be 274; in the assay with 3E, 208; in the assay with 96F1 it was 313; in the assay with 13F2 it was 222; with 22E, 340; in the assay on 135F2, 285. Besides, the “area” value was determined as 405 with 8F1, 319 in the assay on 17F1, 294 in the assay with 10F2 and 257 with 17E.
Consider `CCCCCCCCCCCCCCCCCCOP(=O)([O-])OC1CC[N+](C)(C)CC1` [Perifosine], for which the “area” value was above 500 in the assay with 13E; above 500 in the assay on 3E; 480 in the assay with 13F2; above 500 in the assay with 27F1; above 500 in the assay with 22E; 482 in the assay on 8F1. Moreover, the “area” value was above 500 in the assay on 17F1, 470 in the assay with 10F2 and 499 in the assay with 17E.
Regarding `CC(=O)Nc1cccc(-n2c(=O)n(C3CC3)c(=O)c3c(Nc4ccc(I)cc4F)n(C)c(=O)c(C)c32)c1` [Trametinib], the “area” value with 13E was found to be 396; with 3E it was 331; in the assay with 96F1 it was 418; with 13F2 it was 214; in the assay with 27F1 it was 380; with 135F2, 281. Also, the “area” value with 8F1 was above 500; with 17F1, 428; in the assay on 10F2 it was 172; in the assay on 17E it was 394.
As to `COc1cc2/c(=N/c3ccc(Br)cc3F)nc[nH]c2cc1OCC1CCN(C)CC1` [Vandetanib], the “area” value in the assay with 13E amounted to 459; with 3E it was 474; in the assay with 96F1 it was 410; in the assay with 13F2 it was 373; in the assay with 27F1 it was 446; with 135F2, 428. The “area” value came to 487 in the assay with 8F1, 449 in the assay on 17F1, 340 in the assay with 10F2 and 429 with 17E.
In the case of `CC1(C)CCC(CN2CCN(c3ccc(C(=O)NS(=O)(=O)c4ccc(NCC5CCOCC5)c([N+](=O)[O-])c4)c(Oc4cnc5[nH]ccc5c4)c3)CC2)=C(c2ccc(Cl)cc2)C1` [Venetoclax], the “area” value in the assay on 13E stood at 456; in the assay on 3E it was 472; with 96F1, 461; with 13F2, 471; in the assay on 27F1, 464; with 135F2, 470. For the same molecule, the “area” value with 8F1 came to 465; in the assay with 17F1 it was 468; with 10F2, 435; with 17E it was 465.

The record behind these values is the supplement of paper PMC11579375.
